In patent US12419304B2, “Aryl sulfide comprising benzylamine, synthesis method and application thereof” (Shandong Kangqiao Bio-Technology Co., Ltd., priority 2019, dated 2025):
Where two headings read alike, the source gives them in different places.

System: Tetranychus cinnabarinus
Assay: Activity test of Tetranychus cinnabarinus (spray on inoculated bean seedlings, mortality after 72 hours)
Assay type: in vivo
Conditions: for pest or weed control at 100 ppm: 100 ppm (100 mg/L); for pest or weed control at 100 ppm / pest or weed control at 6.25 ppm / pest or weed control at 25 ppm: whole plant sprayed, 72 hours, read-out: lethal rate against mites; for pest or weed control at 6.25 ppm: 6.25 ppm (6.25 mg/L); for pest or weed control at 25 ppm: 25 ppm (25 mg/L)
Method: Activity Test of Tetranychus cinnabarinus
The compound under test was dissolved in acetone and diluted to desired concentration with 0.1% Tween 80 solution with acetone content not exceeding 5%.
One true leaf was removed from the bean seedlings having two true leaves. Tanyanychus cinarinus was inoculated and the cardinal number thereof investigated. The whole plant was sprayed with a handheld sprayer, and each treatment was repeated for 3 times. After treatment, the bean seedlings were cultured in a constant temperature room. 72 hours later, the number of live mites was investigated and the mortality rate was calculated. The number of Tetranychus cinnabarinus was 100-200 per inoculation. Mortality=(number of inoculated mites−number of live mites after treatment)[…]×100%.

[1] = Concentration 3.12 ppm, acaricidal parallel test with bifenazate and cyflumetofen, read-out: Mortality %

COc1ccc(-c2ccccc2)cc1NNC(=O)OC(C)C [Bifenazate, bifenazate, reference compound]
mortality at 3.12 ppm: 85%

Cc1cc(F)c(NCc2ccccc2C#N)cc1SCC(F)(F)F [Compound 33]
pest or weed control at 100 ppm: > 90%

COC(=O)c1ccccc1CNc1cc(SCC(F)(F)F)c(C)cc1F [Compound 53]
pest or weed control at 6.25 ppm: > 90% | pest or weed control at 25 ppm: > 90% | pest or weed control at 100 ppm: > 90% | mortality at 3.12 ppm [1]: 99%

COC(=O)c1ccccc1CNc1cc([S+]([O-])CC(F)(F)F)c(C)cc1F (centres unmarked) [Compound 54]
pest or weed control at 6.25 ppm: > 90% | pest or weed control at 25 ppm: > 90% | pest or weed control at 100 ppm: > 90% | mortality at 3.12 ppm [1]: 100%

Cc1cc(F)c(NCc2cccc(F)c2)cc1SCC(F)(F)F [Compound 229, 2-fluoro-N-(3-fluorobenzyl)-4-methyl-5-((2,2,2-trifluoroethyl)thio) aniline]
pest or weed control at 100 ppm: > 90%

Cc1cc(F)c(NCc2ccc(Cl)c(Cl)c2)cc1SCC(F)(F)F [Compound 247]
pest or weed control at 100 ppm: > 90%

Cc1cc(F)c(NCc2ccc(Cl)c(F)c2)cc1SCC(F)(F)F [Compound 249, N-(4-chloro-3-fluorobenzyl)-2-fluoro-4-methyl-5-((2,2,2-trifluoroethyl)thio) aniline]
pest or weed control at 100 ppm: > 90%

COC(=O)c1cc(F)ccc1CNc1cc(SCC(F)(F)F)c(C)cc1F [Compound 303, 5-Fluoro-2-((((2-Fluoro-4-methyl-5-(2,2,2-trifluoroethyl)thio)phenyl)amino)methyl) benzoate]
pest or weed control at 6.25 ppm: > 90% | pest or weed control at 25 ppm: > 90% | pest or weed control at 100 ppm: > 90% | mortality at 3.12 ppm [1]: 99%

COC(=O)c1cc(F)ccc1CNc1cc([S+]([O-])CC(F)(F)F)c(C)cc1F (centres unmarked) [Compound 304]
pest or weed control at 6.25 ppm: > 90% | pest or weed control at 25 ppm: > 90% | pest or weed control at 100 ppm: > 90% | mortality at 3.12 ppm [1]: 98%

COC(=O)c1cc(F)ccc1CNc1cc(SCC(F)(F)F)c(Cl)cc1F [Compound 1165]
pest or weed control at 6.25 ppm: > 90% | pest or weed control at 25 ppm: > 90% | pest or weed control at 100 ppm: > 90% | mortality at 3.12 ppm [1]: 99%

COC(=O)c1cc(F)ccc1CNc1cc([S+]([O-])CC(F)(F)F)c(Cl)cc1F (centres unmarked) [Compound 1166]
pest or weed control at 6.25 ppm: > 90% | pest or weed control at 25 ppm: > 90% | pest or weed control at 100 ppm: > 90% | mortality at 3.12 ppm [1]: 98%

COC(=O)c1ccccc1CNc1cc(SCC(F)(F)F)c(Cl)cc1F [Compound 1202, 2-((((4-chloro-2-fluoro-5-((2,2,2-trifluoroethyl)thio)phenyl)amino)methyl) benzoate]
pest or weed control at 6.25 ppm: > 90% | pest or weed control at 25 ppm: > 90% | pest or weed control at 100 ppm: > 90% | mortality at 3.12 ppm [1]: 97%

COC(=O)c1ccccc1CNc1cc([S+]([O-])CC(F)(F)F)c(Cl)cc1F (centres unmarked) [Compound 1203]
pest or weed control at 6.25 ppm: > 90% | pest or weed control at 25 ppm: > 90% | pest or weed control at 100 ppm: > 90% | mortality at 3.12 ppm [1]: 98%

COCCOC(=O)C(C#N)(C(=O)c1ccccc1C(F)(F)F)c1ccc(C(C)(C)C)cc1 (centres unmarked) [Cyflumetofen, cyflumetofen, reference compound]
mortality at 3.12 ppm: 72%
